Source: patent US10155742B2, “Halofuginol derivatives and their use in cosmetic and pharmaceutical compositions” (President and Fellows of Harvard College, priority 2012, dated 2018)

Key:
dermal ECM deposition = details: intraperitoneally, added to food, or applied locally; Pines et al. 2003; cited from earlier work
P. falciparum (Dd2) = assay: In vitro P. falciparum viability assay with excess proline; format: cell-based, Plasmodium falciparum; details: Dd2 strain in red blood cells, relative to unmodified RPMI, FIG. 23
Experimental: The activity of halofuginone and amodiaquine as inhibitors of P. falciparum growth was tested in erythrocytes in RPMI with or without excess amino acids as indicated, and IC50 values were normalized to IC50 values obtained under standard conditions using unmodified RPMI (numbers in bold). The absolute IC50 values for halofuginone and amodiaquine for RPMI are reported in parentheses. Fold amino acid indicated (e.g., “5×”) is relative to the concentration of the respective amino acid in RPMI. Fold concentration of D-Pro and L-Orn are relative to L-Pro.
In vitro potency against P. falciparum (DD2) was assessed using a modified version of the method of Plouffe and coworkers (Plouffe et al. Proc. Natl. Acad. Sci. USA 105:9059-64 (2008)). Parasites were cultured in the presence of drug in RPMI (Sigma) containing 4.16 mg/ml Albumax in a total volume of 50 μl at a 2.5% hematocrit and an initial parasitemia of 0.3% in black Greiner GNF clear-bottom plates. Cultures were incubated 72 hr at 37° C. under […], 4% CO2 and 3% O2. At the end of the incubation, SYBR green was added to a dilution of 1:10,000 and plates were stored overnight (or until ready to be read) at −80° C. Just before reading, plates were centrifuged at 700 rpm and fluorescence was read using 480 nm excitation and 530 nm emission frequencies. Compound concentrations that inhibit parasite replication reduce the fluorescence intensity of SYBR green bound to parasite DNA.

[1] = tested on: Th17-driven multiple sclerosis model; details: Sundrud et al. 2009; cited from earlier work
[2] = tested on: primary human prostate stromal (hPrSc) cells, s100a4; assay: S100A4 mRNA in primary human prostate stromal cells; format: cell-based; details: with or without TGF 10 ng/ml, FIG. 28
Experimental: (§1) Primary human prostate stromal (hPrSc) cells were left in low-serum media (0.2%) for 24 hours, and treated consecutively twice for 48 hours with or without tumor-growth factor beta (TGF; 10 ng/ml), halofuginone (HF) or halofuginol (HFol) at the concentrations indicated. Relative mRNA levels of the fibrosis/tissue invasion marker s100a4 was measured by quantitative real-time PCR using glyceraldehyde-3-phosphate dehydrogenase (GAPDH) as internal control.

[3] = tested on: primary human prostate stromal (hPrSc) cells, col1a1; assay: Type I collagen (col1a1) mRNA in primary human prostate stromal cells; format: cell-based; details: treated twice for 48 hours, FIG. 27
Experimental: as §1, with “hours,” for “hours with or without tumor-growth factor beta (TGF; 10 ng/ml),”, “myofibroblastic markeralpha 1 collagen type 1 (col1a1)” for “fibrosis/tissue invasion marker s100a4”

O=C(C[C@H]1NCCC[C@@H]1O)Cn1cnc2cc(Br)c(Cl)cc2c1=O (racemic) [HF, 7-bromo-6-chloro-3-[3-(3-hydroxy-2-piperidinyl)-2-oxopropyl]-4(3H)-quinazolinone]
excess dermal ECM deposition (dermal ECM deposition): reduces | fold increase of effective IC50 on addition of 5× proline (P. falciparum (Dd2)): roughly 7 fold | development of disease [1]: inhibits | expression of the activated fibroblast marker S100A4 [2]: inhibit | Type 1 collagen expression in fibroblasts in culture [3]: inhibit
